# Tests used:
# [1] = test system: cucumber chitinase protein; test: Cucumber chitinase ELISA in transgenic plants carrying cucumber chitinase genomic constructs after leaf treatment; format: in vivo, tobacco; parameters: key: —: Indicates that sample has no detectable level of chitinase protein
# Protocol: Once the transgenic plants are transferred to soil, they are grown 4-5 weeks before treatment. The following solutions are applied to the leaves with sterile paintbrushes:
# 3. Methyl benzo-1,2,3-thiadiazole-7-carboxylate. The solution is made by resuspending a wettable powder containing a formulation of the chemical with 25% active ingredient in sterile water at a concentration of 1 mg/ml.
# 4. Methyl 2,6-dichloroisonicotinate, prepared as above. Alternatively, 30 ul of 10 mM sodium phosphate buffer, pH 7.0, or 30 ul of the same buffer containing tobacco mosaic virus (50-100 pfu/30 ul) is applied to the leaves which have been sprinkled with carborundum. The buffers are distributed over the whole treated leaf by gentle rubbing.
# The plants are allowed to continue to grow for seven days. The treated leaves are then harvested, frozen in liquid nitrogen and stored at −80° C. until they are assayed.
# Frozen leaf tissue is ground in a mortar with a pestle in the presence of liquid nitrogen to produce a fine powder. 0.33 g of each tissue sample is added to 1 ml extraction buffer (50 mM Tris-HCl, pH 8.5, 0.2M 2-mercaptoethanol, 2 mM phenyl methyl sulfonyl fluoride, 2 mM benzamidine, 10 mM epsilon-aminocaproic acid, 1 mM leueptine) and the sample homogenized for one minute with an Ultra Turrax Mixer (shaft #S25N-8G, Tekmar Co. Cincinnati, Ohio). The samples are then centrifuged at 48,000×g for fifteen minutes at 4° C. and the supernatant removed from the pelleted material. The extracts are diluted at least 1:50 in ELISA diluent (101 mM sodium phosphate, pH 7.4, 140 mM sodium chloride, 0.05% Tween 20, 0.02% sodium azide, 1% BSA).
# A microtiter plate is coated with monoclonal antibody specific to the cucumber chitinase protein at 2 ug/ml in borate-buffered saline (100 mM boric acid, 25mM sodium borate, 75 mM sodium chloride; pH 8.5) using 50 ul per well. The plate is incubated overnight at 4° C. The plate is washed with ELISA wash buffer (10 mM Tris-HCl, pH 8.0, 0.05% Tween 20, 3 mM sodium azide) and BSA blocking solution (10 mM sodium phosphate, pH 7.4, 140 mM sodium chloride, 0.02% sodium azide, 1% BSA) is added to completely cover each well. Incubation is for at least 30 minutes at room temperature.
# The microtiter plate is washed with ELISA wash buffer and 50 ul of extract is added to the appropriate well. 50 ul of each of 10 chitinase protein standards (ranging from 0 ng/ml to 31.64 ng/ml) was also added to the appropriate well and the plate is incubated for two hours at 4° C. The plate is washed with ELISA wash buffer and 50 ul of rabbit polyclonal antibody to the cucumber chitainase protein (diluted 1:15,000 in ELISA diluent) is added to the well and incubated for one hour at 37° C. After washing with ELISA wash buffer, 50 ul of goat anti-rabbit conjugated to alkaline phosphatase (1:500 in ELISA diluent) is added to each well and incubated at 37° C. for one hour. The plate is then washed and 50 ul alkaline phosphatase substrate solution (0.6 mg/ml p-nitrophenyl phosphate in 0.5 mM magnesium chloride and 10% diethanolamine) is added to each well. After a 30 minute incubation at room temperature, 50 ul of 3N sodium hydroxide is added to each well to stop the reaction.
# The plate is read at 405 nm and 492 nm on an HP Genenchem ELISA plate reader. The output values are expressed as A(405 nm)-A(492 nm)−0.092 to allow for correction of p-nitrophenyl phosphate as substrate. The chitinase standards for each plate are graphed logarithmically. The amount of chitinase protein in each sample is determined from the standard curve. If the amount of chitinase in any sample is close to the upper limit of the curve, the sample is assayed again at a greater dilution. Final results are expressed in the table below in ug chitinase per gram tissue.
# [2] = test system: chemically regulatable chimeric genes coding for GUS, AHAS or BT; test: Primer extension assay for mRNA of chemically regulatable chimeric genes; format: in vivo; details: callus or regenerated plant material from transgenic plants; level proportional to amount of regulator applied
# Procedure, shortened: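 Plant material was harvested after chemical induction, and total RNA was annealed to a radiolabeled probe (70° C. for 10 minutes, then slow cooling to 37° C. overnight). Reverse transcriptase extension ran for 30 minutes at 37° C. Products were resolved on a 6% sequencing gel and visualized by autoradiography.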
compound,measurement,setting,value
"COC(=O)c1cc(Cl)nc(Cl)c1 [MDCINA, Methyl 2,6-dichloroisonicotinate]",ELISA ASSAY RESULTS (ug chitinase/g tissue),"[1]; line Bam-1 (2001/BamChit), leaves harvested after seven days, water 0.066, buffer —",—
same,ELISA ASSAY RESULTS (ug chitinase/g tissue),"[1]; line Bam-3 (2001/BamChit), seven days, water —, buffer —",—
same,ELISA ASSAY RESULTS (ug chitinase/g tissue),"[1]; line Bam-4 (2001/BamChit), seven days, water —, buffer —",—
same,ELISA ASSAY RESULTS (ug chitinase/g tissue),"[1]; line Bam-8 (2001/BamChit), seven days, water —, buffer —",—
same,ELISA ASSAY RESULTS (ug chitinase/g tissue),"[1]; line Bam-9 (2001/BamChit), seven days, water —, buffer —",—
same,ELISA ASSAY RESULTS (ug chitinase/g tissue),"[1]; line Bam-10 (2001/BamChit), seven days, water 0.059, buffer 0.084",2.378 ug chitinase/g tissue
same,ELISA ASSAY RESULTS (ug chitinase/g tissue),"[1]; line Bam-12 (2001/BamChit), seven days, water —, buffer —",—
same,ELISA ASSAY RESULTS (ug chitinase/g tissue),"[1]; line Bam-14 (2001/BamChit), seven days, water —, buffer —",—
same,ELISA ASSAY RESULTS (ug chitinase/g tissue),"[1]; line Bam-15 (2001/BamChit), seven days, water —, buffer —",—
same,ELISA ASSAY RESULTS (ug chitinase/g tissue),"[1]; line Bam-16 (2001/BamChit), seven days, water —, buffer —",0.864 ug chitinase/g tissue
same,ELISA ASSAY RESULTS (ug chitinase/g tissue),"[1]; line Bam-17 (2001/BamChit), seven days, water —, buffer —",—
same,ELISA ASSAY RESULTS (ug chitinase/g tissue),"[1]; line Bam-19 (2001/BamChit), seven days, water —, buffer —",—
same,ELISA ASSAY RESULTS (ug chitinase/g tissue),"[1]; line Bam-21 (2001/BamChit), seven days, water —, buffer —",—
same,ELISA ASSAY RESULTS (ug chitinase/g tissue),"[1]; line Bam-23 (2001/BamChit), seven days, water —, buffer —",—
same,ELISA ASSAY RESULTS (ug chitinase/g tissue),"[1]; line Bam-24 (2001/BamChit), seven days, water —, buffer —",—
same,ELISA ASSAY RESULTS (ug chitinase/g tissue),"[1]; line Bam-25 (2001/BamChit), seven days, water —, buffer —",—
same,ELISA ASSAY RESULTS (ug chitinase/g tissue),"[1]; line Bam-26 (2001/BamChit), seven days, water —, buffer —",—
same,ELISA ASSAY RESULTS (ug chitinase/g tissue),"[1]; line Nco-2 (2001/NcoChit), seven days, water —, buffer —",—
same,ELISA ASSAY RESULTS (ug chitinase/g tissue),"[1]; line Nco-3 (2001/NcoChit), seven days, water —, buffer —",—
same,ELISA ASSAY RESULTS (ug chitinase/g tissue),"[1]; line Nco-5 (2001/NcoChit), seven days, water —, buffer —",—
same,ELISA ASSAY RESULTS (ug chitinase/g tissue),"[1]; line Nco-8 (2001/NcoChit), seven days, water —, buffer —",—
same,ELISA ASSAY RESULTS (ug chitinase/g tissue),"[1]; line Nco-9 (2001/NcoChit), seven days, water —, buffer —",—
same,ELISA ASSAY RESULTS (ug chitinase/g tissue),"[1]; line Nco-10 (2001/NcoChit), seven days, water —, buffer —",—
same,ELISA ASSAY RESULTS (ug chitinase/g tissue),"[1]; line Nco-11 (2001/NcoChit), seven days, water —, buffer —",—
same,ELISA ASSAY RESULTS (ug chitinase/g tissue),"[1]; line Nco-15 (2001/NcoChit), seven days, water —, buffer —",—
same,ELISA ASSAY RESULTS (ug chitinase/g tissue),"[1]; line Nco-16 (2001/NcoChit), seven days, water 0.555, buffer 0.566",0.286 ug chitinase/g tissue
same,ELISA ASSAY RESULTS (ug chitinase/g tissue),"[1]; line Nco-17 (2001/NcoChit), seven days, water —, buffer —",—
same,ELISA ASSAY RESULTS (ug chitinase/g tissue),"[1]; line Sal-2 (2001/SalChit), seven days, water —, buffer —",—
same,ELISA ASSAY RESULTS (ug chitinase/g tissue),"[1]; line Sal-3 (2001/SalChit), seven days, water —, buffer —",0.047 ug chitinase/g tissue
same,ELISA ASSAY RESULTS (ug chitinase/g tissue),"[1]; line Sal-4 (2001/SalChit), seven days, water —, buffer —",—
same,ELISA ASSAY RESULTS (ug chitinase/g tissue),"[1]; line Sal-5 (2001/SalChit), seven days, water —, buffer —",—
same,ELISA ASSAY RESULTS (ug chitinase/g tissue),"[1]; line Sal-7 (2001/SalChit), seven days, water —, buffer —",—
same,ELISA ASSAY RESULTS (ug chitinase/g tissue),"[1]; line Sal-8 (2001/SalChit), seven days, water —, buffer —",—
same,ELISA ASSAY RESULTS (ug chitinase/g tissue),"[1]; line Sal-9 (2001/SalChit), seven days, water —, buffer —",—
same,ELISA ASSAY RESULTS (ug chitinase/g tissue),"[1]; line Sal-11 (2001/SalChit), seven days, water —, buffer —",—
same,ELISA ASSAY RESULTS (ug chitinase/g tissue),"[1]; line Sal-12 (2001/SalChit), seven days, water —, buffer —",—
same,ELISA ASSAY RESULTS (ug chitinase/g tissue),"[1]; line Sal-13 (2001/SalChit), seven days, water —, buffer —",—
same,ELISA ASSAY RESULTS (ug chitinase/g tissue),"[1]; line Sal-14 (2001/SalChit), seven days, water —, buffer —",—
same,ELISA ASSAY RESULTS (ug chitinase/g tissue),"[1]; line Sal-15 (2001/SalChit), seven days, water —, buffer —",—
same,"level of mRNA of the chimeric gene (GUS, AHAS or BT primer), primer extension assay",[2],elevated levels of mRNA

# Reference: US6632981B1, “DNA sequences encoding polypeptides having beta-1,3-glucanase activity” (Novartis Finance Corporation, priority 1988, dated 2003)
